Columns and labels:
Format in all cases: in vivo
Conditions in all cases: 0 to 100 scale (0 no effect, 100 complete control)
[1] = tested on: barnyardgrass (Echinochloa crus-galli); assay: Test A preemergence, barnyardgrass
How it was run: (§1)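 Greenhouse pot test in loam/sand soil. Pre: directed soil spray after seeding. Post: 1–2-leaf plants, 2–10 cm. Formulation: non-phytotoxic solvent + surfactant. Visual rating vs untreated controls at ~10 d, 0 (no effect) to 100 (complete control).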

kochia (Kochia scoparia) [2] = assay: Test A preemergence, kochia
How it was run: as §1

[3] = tested on: ragweed (common ragweed, Ambrosia elatior); assay: Test A preemergence, ragweed
How it was run: as §1

[4] = tested on: ryegrass, Italian (Lolium multiflorum); assay: Test A preemergence, Italian ryegrass
How it was run: as §1

[5] = tested on: foxtail, giant (Setaria faberii); assay: Test A preemergence, giant foxtail
How it was run: as §1

[6] = tested on: pigweed (Amaranthus retroflexus); assay: Test A preemergence, pigweed
How it was run: as §1

[7] = tested on: barnyardgrass (Echinochloa crus-galli); assay: Test A postemergence, barnyardgrass
How it was run: as §1

kochia (Kochia scoparia) [8] = assay: Test A postemergence, kochia
How it was run: as §1

[9] = tested on: ragweed (common ragweed, Ambrosia elatior); assay: Test A postemergence, ragweed
How it was run: as §1

[10] = tested on: ryegrass, Italian (Lolium multiflorum); assay: Test A postemergence, Italian ryegrass
How it was run: as §1

[11] = tested on: foxtail, giant (Setaria faberii); assay: Test A postemergence, giant foxtail
How it was run: as §1

[12] = tested on: pigweed (Amaranthus retroflexus); assay: Test A postemergence, pigweed
How it was run: as §1

[13] = tested on: blackgrass (Alopecurus myosuroides); assay: Test A postemergence, blackgrass
How it was run: as §1

[14] = tested on: galium (catchweed bedstraw, Galium aparine); assay: Test A postemergence, galium
How it was run: as §1

[15] = tested on: wheat (Triticum aestivum); assay: Test A postemergence, wheat
How it was run: as §1

corn (Zea mays) = assay: Test A postemergence, corn
How it was run: as §1

[16] = 125 g ai/ha, visual injury, approximately 10 days
[17] = 500 g ai/ha, visual injury, approximately 10 days

SMILES: O=C1NCC(c2cccc(Cn3cccn3)c2)C1C(=O)Nc1ccc(F)c(F)c1F (stereo not shown) [Compound 26]
- Plant response rating, Barnyardgrass ([1]; 125 g ai/ha): 40
- Plant response rating, Barnyardgrass ([1]; 500 g ai/ha): 90
- Plant response rating, Kochia (kochia (Kochia scoparia) [2]; 125 g ai/ha): 0
- Plant response rating, Kochia (kochia (Kochia scoparia) [2]; 500 g ai/ha): 0
- Plant response rating, Ragweed ([3]; 125 g ai/ha): 0
- Plant response rating, Ragweed ([3]; 500 g ai/ha): 0
- Plant response rating, Ryegrass, Italian ([4]; 125 g ai/ha): 0
- Plant response rating, Ryegrass, Italian ([4]; 500 g ai/ha): 0
- Plant response rating, Foxtail, Giant ([5]; 125 g ai/ha): 40
- Plant response rating, Foxtail, Giant ([5]; 500 g ai/ha): 90
- Plant response rating, Pigweed ([6]; 125 g ai/ha): 0
- Plant response rating, Pigweed ([6]; 500 g ai/ha): 0
- Plant response rating, Barnyardgrass [7, 16]: 30
- Plant response rating, Barnyardgrass [7, 17]: 70
- Plant response rating, Kochia (kochia (Kochia scoparia) [8]; [16]): 0
- Plant response rating, Kochia (kochia (Kochia scoparia) [8]; [17]): 0
- Plant response rating, Ragweed [9, 16]: 0
- Plant response rating, Ragweed [9, 17]: 0
- Plant response rating, Ryegrass, Italian [10, 16]: 0
- Plant response rating, Ryegrass, Italian [10, 17]: 0
- Plant response rating, Foxtail, Giant [11, 16]: 30
- Plant response rating, Foxtail, Giant [11, 17]: 60
- Plant response rating, Pigweed [12, 16]: 0
- Plant response rating, Pigweed [12, 17]: 0
- Plant response rating, Blackgrass [13, 16]: 0
- Plant response rating, Blackgrass [13, 17]: 0
- Plant response rating, Galium [14, 16]: 0
- Plant response rating, Galium [14, 17]: 0
- Plant response rating, Wheat [15, 16]: 0
- Plant response rating, Wheat [15, 17]: 0
- Plant response rating, Corn (corn (Zea mays); [16]): 0
- Plant response rating, Corn (corn (Zea mays); [17]): 0

SMILES: O=C1NCC(c2cccc(Cn3cccn3)c2)C1C(=O)Nc1cccc(F)c1F (stereo not shown) [Compound 30]
- Plant response rating, Barnyardgrass ([1]; 125 g ai/ha): 0
- Plant response rating, Barnyardgrass ([1]; 500 g ai/ha): 50
- Plant response rating, Kochia (kochia (Kochia scoparia) [2]; 125 g ai/ha): 0
- Plant response rating, Kochia (kochia (Kochia scoparia) [2]; 500 g ai/ha): 0
- Plant response rating, Ragweed ([3]; 125 g ai/ha): 0
- Plant response rating, Ragweed ([3]; 500 g ai/ha): 0
- Plant response rating, Ryegrass, Italian ([4]; 125 g ai/ha): 0
- Plant response rating, Ryegrass, Italian ([4]; 500 g ai/ha): 0
- Plant response rating, Foxtail, Giant ([5]; 125 g ai/ha): 20
- Plant response rating, Foxtail, Giant ([5]; 500 g ai/ha): 90
- Plant response rating, Pigweed ([6]; 125 g ai/ha): 0
- Plant response rating, Pigweed ([6]; 500 g ai/ha): 0
- Plant response rating, Barnyardgrass [7, 16]: 20
- Plant response rating, Barnyardgrass [7, 17]: 60
- Plant response rating, Kochia (kochia (Kochia scoparia) [8]; [16]): 0
- Plant response rating, Kochia (kochia (Kochia scoparia) [8]; [17]): 0
- Plant response rating, Ragweed [9, 16]: 0
- Plant response rating, Ragweed [9, 17]: 0
- Plant response rating, Ryegrass, Italian [10, 16]: 0
- Plant response rating, Ryegrass, Italian [10, 17]: 0
- Plant response rating, Foxtail, Giant [11, 16]: 30
- Plant response rating, Foxtail, Giant [11, 17]: 50
- Plant response rating, Pigweed [12, 16]: 0
- Plant response rating, Pigweed [12, 17]: 0
- Plant response rating, Blackgrass [13, 16]: 0
- Plant response rating, Blackgrass [13, 17]: 0
- Plant response rating, Galium [14, 16]: 0
- Plant response rating, Galium [14, 17]: 0
- Plant response rating, Wheat [15, 16]: 0
- Plant response rating, Wheat [15, 17]: 0
- Plant response rating, Corn (corn (Zea mays); [16]): 0
- Plant response rating, Corn (corn (Zea mays); [17]): 0

SMILES: O=C1NCC(c2cccc(COc3ccccc3)c2)C1C(=O)Nc1ccccc1Cl (stereo not shown) [Compound 18]
- Plant response rating, Barnyardgrass ([1]; 125 g ai/ha): 0
- Plant response rating, Barnyardgrass ([1]; 500 g ai/ha): 0
- Plant response rating, Kochia (kochia (Kochia scoparia) [2]; 125 g ai/ha): 0
- Plant response rating, Kochia (kochia (Kochia scoparia) [2]; 500 g ai/ha): 0
- Plant response rating, Ragweed ([3]; 125 g ai/ha): 0
- Plant response rating, Ragweed ([3]; 500 g ai/ha): 0
- Plant response rating, Ryegrass, Italian ([4]; 125 g ai/ha): 0
- Plant response rating, Ryegrass, Italian ([4]; 500 g ai/ha): 0
- Plant response rating, Foxtail, Giant ([5]; 125 g ai/ha): 0
- Plant response rating, Foxtail, Giant ([5]; 500 g ai/ha): 20
- Plant response rating, Pigweed ([6]; 125 g ai/ha): 0
- Plant response rating, Pigweed ([6]; 500 g ai/ha): 0
- Plant response rating, Barnyardgrass [7, 16]: 0
- Plant response rating, Barnyardgrass [7, 17]: 20
- Plant response rating, Kochia (kochia (Kochia scoparia) [8]; [16]): 0
- Plant response rating, Kochia (kochia (Kochia scoparia) [8]; [17]): 0
- Plant response rating, Ragweed [9, 16]: 0
- Plant response rating, Ragweed [9, 17]: 0
- Plant response rating, Ryegrass, Italian [10, 16]: 0
- Plant response rating, Ryegrass, Italian [10, 17]: 0
- Plant response rating, Foxtail, Giant [11, 16]: 0
- Plant response rating, Foxtail, Giant [11, 17]: 0
- Plant response rating, Pigweed [12, 16]: 0
- Plant response rating, Pigweed [12, 17]: 0
- Plant response rating, Blackgrass [13, 16]: 0
- Plant response rating, Blackgrass [13, 17]: 0
- Plant response rating, Galium [14, 16]: 0
- Plant response rating, Galium [14, 17]: 0
- Plant response rating, Wheat [15, 16]: 0
- Plant response rating, Wheat [15, 17]: 0
- Plant response rating, Corn (corn (Zea mays); [16]): 0
- Plant response rating, Corn (corn (Zea mays); [17]): 0

SMILES: O=C1NCC(c2cccc(Oc3ncc(Cl)cn3)c2)C1C(=O)Nc1cccc(F)c1F (stereo not shown) [Compound 56]
- Plant response rating, Barnyardgrass ([1]; 125 g ai/ha): 30
- Plant response rating, Barnyardgrass ([1]; 500 g ai/ha): 70
- Plant response rating, Kochia (kochia (Kochia scoparia) [2]; 125 g ai/ha): 0
- Plant response rating, Kochia (kochia (Kochia scoparia) [2]; 500 g ai/ha): 0
- Plant response rating, Ragweed ([3]; 125 g ai/ha): 0
- Plant response rating, Ragweed ([3]; 500 g ai/ha): 0
- Plant response rating, Ryegrass, Italian ([4]; 125 g ai/ha): 0
- Plant response rating, Ryegrass, Italian ([4]; 500 g ai/ha): 0
- Plant response rating, Foxtail, Giant ([5]; 125 g ai/ha): 0
- Plant response rating, Foxtail, Giant ([5]; 500 g ai/ha): 0
- Plant response rating, Pigweed ([6]; 125 g ai/ha): 0
- Plant response rating, Pigweed ([6]; 500 g ai/ha): 0
- Plant response rating, Barnyardgrass [7, 16]: 0
- Plant response rating, Barnyardgrass [7, 17]: 30
- Plant response rating, Kochia (kochia (Kochia scoparia) [8]; [16]): 0
- Plant response rating, Kochia (kochia (Kochia scoparia) [8]; [17]): 0
- Plant response rating, Ragweed [9, 16]: 0
- Plant response rating, Ragweed [9, 17]: 0
- Plant response rating, Ryegrass, Italian [10, 16]: 0
- Plant response rating, Ryegrass, Italian [10, 17]: 0
- Plant response rating, Foxtail, Giant [11, 16]: 0
- Plant response rating, Foxtail, Giant [11, 17]: 60
- Plant response rating, Pigweed [12, 16]: 0
- Plant response rating, Pigweed [12, 17]: 0
- Plant response rating, Blackgrass [13, 16]: 0
- Plant response rating, Blackgrass [13, 17]: 0
- Plant response rating, Galium [14, 16]: 0
- Plant response rating, Galium [14, 17]: 20
- Plant response rating, Wheat [15, 16]: 0
- Plant response rating, Wheat [15, 17]: 0
- Plant response rating, Corn (corn (Zea mays); [16]): 0
- Plant response rating, Corn (corn (Zea mays); [17]): 0

SMILES: CN1CC(c2cccc(Oc3ncc(F)cc3F)c2)C(C(=O)Nc2ccc(F)c(F)c2F)C1=O (single isomer, unassigned) [Compound 74]
- Plant response rating, Barnyardgrass ([1]; 31 g ai/ha): 70
- Plant response rating, Barnyardgrass ([1]; 125 g ai/ha): 90
- Plant response rating, Kochia (kochia (Kochia scoparia) [2]; 31 g ai/ha): 0
- Plant response rating, Kochia (kochia (Kochia scoparia) [2]; 125 g ai/ha): 40
- Plant response rating, Ragweed ([3]; 31 g ai/ha): 0
- Plant response rating, Ragweed ([3]; 125 g ai/ha): 0
- Plant response rating, Ryegrass, Italian ([4]; 31 g ai/ha): 30
- Plant response rating, Ryegrass, Italian ([4]; 125 g ai/ha): 80
- Plant response rating, Foxtail, Giant ([5]; 31 g ai/ha): 90
- Plant response rating, Foxtail, Giant ([5]; 125 g ai/ha): 100
- Plant response rating, Pigweed ([6]; 31 g ai/ha): 0
- Plant response rating, Pigweed ([6]; 125 g ai/ha): 80
- Plant response rating, Barnyardgrass ([7]; 31 g ai/ha): 60
- Plant response rating, Barnyardgrass [7, 16]: 90
- Plant response rating, Kochia (kochia (Kochia scoparia) [8]; 31 g ai/ha): 20
- Plant response rating, Kochia (kochia (Kochia scoparia) [8]; [16]): 50
- Plant response rating, Ragweed ([9]; 31 g ai/ha): 0
- Plant response rating, Ragweed [9, 16]: 20
- Plant response rating, Ryegrass, Italian ([10]; 31 g ai/ha): 0
- Plant response rating, Ryegrass, Italian [10, 16]: 30
- Plant response rating, Foxtail, Giant ([11]; 31 g ai/ha): 70
- Plant response rating, Foxtail, Giant [11, 16]: 80
- Plant response rating, Pigweed ([12]; 31 g ai/ha): 0
- Plant response rating, Pigweed [12, 16]: 60
- Plant response rating, Blackgrass ([13]; 31 g ai/ha): 0
- Plant response rating, Blackgrass [13, 16]: 20
- Plant response rating, Galium ([14]; 31 g ai/ha): 40
- Plant response rating, Galium [14, 16]: 70
- Plant response rating, Wheat ([15]; 31 g ai/ha): 0
- Plant response rating, Wheat [15, 16]: 20
- Plant response rating, Corn (corn (Zea mays); 31 g ai/ha): 0
- Plant response rating, Corn (corn (Zea mays); [16]): 20
